Results from patent US9463338B2, “Derivatives of the sinapinic acid” (PHARMASYNTHESE, priority 2013, dated 2016).
Several values for one entry are separate records, joined by “and”; a condition that tells them apart may be missing. Identical values can stand only once. Marks after values point to notes of the source that are not given here.

Columns and labels:
[1] = test system: normal human dermal fibroblasts; experiment: Production of type I pro-collagen in monolayer cultures of normal human dermal fibroblasts (E.I.A.); assay type: cell-based; details: 48 hours; for Procollagen Difference (%): vs DMSO
Method: (§1) The test system consists of monolayers of adult normal human dermal fibroblasts obtained by cultivating cells collected from a tummy tuck carried out on a person.
The used reference activator is the Transforming Growth Factor β (TGF-β) at 1 ng/ml. […]
(§2) The compound to be tested is solubilized in 1 mg/ml in DMSO, then diluted in the cells incubation medium, with a constant concentration of 0.1% (v/v) in DMSO.
Upon completion of the incubation period, the type I pro-collagen contained in the fibroblasts incubation media has been quantified using a sensitive and specific E.I.A. kit.
Upon completion of the incubation period, the proteins contained in the cellular lysates have been quantified by a spectrophotometric method (Bradford method—Bradford M. (1976) Anal. Biochem., 72, 248-254).
(§3) The statistical significance of the differences that have been observed between the <<Control>> and the <<reference product>> conditions, has been assessed through a Student test. The statistical significance of the differences that have been observed between the <<Check>> and the <<test products>> conditions, has been assessed through a one-way analysis of variance (One Way ANOVA) followed by a Holm-Sidak test (*:p<0.05).
The results are given in the form of μg of type I pro-collagen per mg of protein (average+/− the standard deviation, S.D.) and are reported in the following Table 5.

[2] = test system: explants of adipose tissues; experiment: Slimming effect: glycerol released in culture medium of adipose tissue explants; assay type: cell-based, human; details: for Glycerol Average: glycerol released in culture medium after 9 days, 100 μl of 2% product in DMSO in 2 ml medium on J0, J2, J3, J5, J7, 3 explants
Method: The activity of the compounds of the invention on the adipocytes has been assessed. To do so, tests have been carried out on explants of adipose tissues that are kept alive according to the following experimental protocol. The products to be tested are introduced in the culture medium. After 9 days of treatment, the activity is assessed through an assay of the glycerol released in the culture medium. In order to be able to compare the potential activity of the molecules, caffeine (Sigma ref C-0750 batch 127F0396), which is known for its activity on the adipocytes (Studlar M. […] The explants are prepared from a tummy tuck ([…]-AB-40) carried out on a donor. 54 explants of tissues have been prepared and kept alive in a medium which is supplemented with penicillin/streptomycin antibiotics (Gibco ref 15140 batch 918578) at 37° C. and with 5% of CO2. The treatment has been carried out, on 3 explants, by incorporating 100 μl of the product (which is in turn at a 2% concentration in the adequate solvent, DMSO) in 2 ml of the culture medium on days J0, J2, J3, J5 and J7. Caffeine has been diluted to the desired concentration in the culture medium on these same days. The control explants have undergone no treatment. On J0, the 3 explants have been collected and frozen at -80° C. On J9, the remaining explants have been collected and preserved under the same conditions. The extraction of lipids from the culture medium has been carried out according to a tested procedure. The assay of the glycerol of the culture medium has been carried out using a glycerol assay kit (Megazyme, K-GROL) in the form of 96-well microplates and reading has been made at 340 nm with a Tecam Infinite M200 microplate reader associated to the Magellan software.

normal human melanocytes = experiment: Melanin production of normal human melanocytes (conditioned fibroblast media); assay type: cell-based; details: for Melanin/Proteins Difference (%): vs DMSO 0.01%
From the text: These experiments allowed to show the capability of the compounds of the invention to modulate the melanin production of normal human melanocytes cultivated in D.K.K. fibroblast monolayers.
Monolayers of normal human dermal fibroblasts have been obtained by cultivating cells collected from a tummy tuck carried out on a person. For carrying out the tests, these cells have been cultivated until obtaining confluent monolayers. Monolayers of normal human melanocytes have been obtained by cultivating cells collected from a tummy tuck carried out on a person. For carrying out the tests, these cells have been cultivated until obtaining non-confluent monolayers. […]
Afterwards, the melanocytes have been incubated for 72 hours at 37° C. in a humid atmosphere with 5% of CO2, in the absence (culture medium alone) or in the presence of kojic acid at 250 μM or of conditioned fibroblast media (see above) diluted to 1/10th in the culture medium of the melanocytes.
The active ingredient has been solubilized in DMSO (Dimethyl Sulfoxide). Afterwards, the dilutions have been carried out in the cells incubation medium with a constant concentration of 0.01% (v/v) of DMSO.
Upon completion of the incubation period, the intracellular melanin content has been quantified in the melanocytic lysates by a spectrophotometric measurement at 405 nm.
Upon completion of the incubation period, the proteins contained in the cellular lysates have been quantified by a spectrophotometric method (Bradford method).
The results are given in the form of μg of intracellular melanin per mg of total proteins of the cellular layer (averages+/− the standard deviation, S.D.).
The statistical significance of the differences observed between the <<Control>> and the <<test product>> conditions, has been assessed through a one-way analysis of variance (One Way ANOVA) followed by a Holm-Sidak test (*:p<0.05).

[3] = test system: normal human dermal fibroblasts; experiment: Production of progerin in monolayer cultures of normal human dermal fibroblasts (ELISA); assay type: cell-based; details: for Progerin % DMSO / Progerin Average / Progerin, individual values / Progerin Difference (%): 96 hours; for Progerin Difference (%): vs DMSO
From the text: In order to study the influence of the compounds of the invention on the concentration of progerin in the cells, the assay method described by C. Verdy, J.-E. Branka and N. Mekideche in <<Quantitative assessment of lactate and progerine production in normal human cutaneous cells during normal ageing: effect of an alaria esculenta extract>>, Int. J. Cosmetic Science, 2011, 1-5, has been used.
as §1
Insulin at 10 nM has been used as a reference product in this study. […]
as §2
Upon completion of the incubation period, on the one hand, the progerin has been quantified in the cellular lysates (obtained by ultrasonic action) through a sensitive and specific ELISA assay, and on the other hand, the proteins that are contained in the cellular lysates have been quantified by a spectrophotometric method (Bradford method—Bradford M. (1976) Anal. Biochem., 72, 248-254).
as §3

[4] = 10 ng/ml, conditioned fibroblast medium, melanocytes 72 hours
[5] = 50 ng/ml, conditioned fibroblast medium, melanocytes 72 hours
[6] = 100 ng/ml, conditioned fibroblast medium, melanocytes 72 hours

## COc1cc(COC(=O)/C=C/c2cc(OC)c(OC(C)=O)c(OC)c2)cc(OC)c1OC [Compound 5]
[1]; 10 ng/ml
  Procollagen % DMSO: 75.7%
  Procollagen Average: 39.7* pg/mg of protein
  Procollagen, individual values: 45.3 pg/mg of protein and 37.0 pg/mg of protein and 36.8 pg/mg of protein
  Procollagen Difference (%): −24.3%
[1]; 100 ng/ml
  Procollagen % DMSO: 96.3%
  Procollagen Average: 50.5 pg/mg of protein
  Procollagen, individual values: 53.0 pg/mg of protein and 52.3 pg/mg of protein and 46.3 pg/mg of protein
  Procollagen Difference (%): −3.7%
[1]; 500 ng/ml
  Procollagen % DMSO: 126.9%
  Procollagen Average: 66.6* pg/mg of protein
  Procollagen, individual values: 66.1 pg/mg of protein and 62.3 pg/mg of protein and 71.4 pg/mg of protein
  Procollagen Difference (%): 26.9%
[2]; after 9 days of treatment
  Glycerol % in comparison with caffeine: 82%
  slimming activity in comparison with caffeine: enhanced slimming activity
[2]
  Glycerol Average: 0.083 mg/mL
Normal human melanocytes
  synthesis of melanin in the melanocytes: significantly decrease
Normal human melanocytes; 10 ng/ml on fibroblasts 48 hours, conditioned medium 1/10th on melanocytes 72 hours
  Melanin/Proteins, individual values: 14.2 µg/mg and 11.7 µg/mg and 13.7 µg/mg
Normal human melanocytes; [4]
  Melanin/Proteins % DMSO: 83.0%
  Melanin/Proteins Average: 14.3* μg/mg
Normal human melanocytes; 10 ng/ml
  Melanin/Proteins Difference (%): −17.0%
Normal human melanocytes; 50 ng/ml on fibroblasts 48 hours, conditioned medium 1/10th on melanocytes 72 hours
  Melanin/Proteins, individual values: 14.3 μg/mg and 14.7 μg/mg (2×)
Normal human melanocytes; [5]
  Melanin/Proteins % DMSO: 83.6%
  Melanin/Proteins Average: 14.4* μg/mg
Normal human melanocytes; 50 ng/ml
  Melanin/Proteins Difference (%): −16.4%
Normal human melanocytes; 100 ng/ml on fibroblasts 48 hours, conditioned medium 1/10th on melanocytes 72 hours
  Melanin/Proteins, individual values: 15.8 µg/mg and 16.7 µg/mg and 16.0 µg/mg
Normal human melanocytes; [6]
  Melanin/Proteins % DMSO: 93.7%
  Melanin/Proteins Average: 16.2 µg/mg
Normal human melanocytes; 100 ng/ml
  Melanin/Proteins Difference (%): −6.3%
[3]; 10 ng/ml
  Progerin % DMSO: 27.6%
  Progerin Average: 306.4* ng/mg of protein
  Progerin, individual values: 284.0 ng/mg of protein and 243.7 ng/mg of protein and 391.4 ng/mg of protein
  Progerin Difference (%): −72.4%
[3]; 100 ng/ml
  Progerin % DMSO: 29.1%
  Progerin Average: 322.9* ng/mg of protein
  Progerin, individual values: 206.0 ng/mg of protein and 364.1 ng/mg of protein and 398.6 ng/mg of protein
  Progerin Difference (%): −70.9%
[3]; 500 ng/ml
  Progerin % DMSO: 77.9%
  Progerin Average: 865.0 ng/mg of protein
  Progerin, individual values: 916.2 ng/mg of protein and 1021.7 ng/mg of protein and 657.0 ng/mg of protein
  Progerin Difference (%): −22.1%
[3]; under the retained experimental conditions
  neo synthesis of progerin: significantly decrease

## O=c1cc(CO)occ1O [Kojic acid, kojic acid, reference compound]
Normal human melanocytes; 250 μM, melanocytes 72 hours
  Melanin/Proteins % control: 86.6* %
  Melanin/Proteins Average: 14.0 µg/mg
  Melanin/Proteins, individual values: 14.3 µg/mg and 13.4 µg/mg and 14.1 µg/mg

## Cn1c(=O)c2c(ncn2C)n(C)c1=O [Caffeine, caffeine, reference compound]
[2]; after 9 days of treatment
  Glycerol % in comparison with caffeine: 100%
[2]
  Glycerol Average: 0.096 mg/mL
